Patent publication US20240189279A1, “IMMUNOMODULATORY COMPOSITIONS AND METHODS OF USE THEREOF” (THE TEXAS A&M UNIVERSITY SYSTEM, priority 2022, published 2024)
Entries after “also recorded” stand apart in the source; their conditions may differ.

Key:
AMPK = AMPK Western blot in RAW 264.7 macrophages stimulated with palmitate and LPS; format: cell-based, murine; settings: RAW 264.7, 1 mM I3A pre-treatment
[1] = test system: fatty acid metabolism enzymes in liver; test: Liver targeted proteomics of fatty acid metabolism and antioxidant enzymes in WD mice; format: in vivo, mice (male B6 129SF1/J)
Text: Animal experiments. Male B6 129SF1/J mice at 6 weeks of age were obtained from Jackson Laboratories (Bar Harbor, ME). Mice were acclimatized to the animal facility for one week. At the start of the experiment, mice were randomly divided into four groups (n=10 for each group). Three of the four groups were fed ad libitum a Western diet (WD) with 40% Kcal from fat and containing 0.15% cholesterol (D12079B, Research Diets) and a sugar water (SW) solution (23.1 g/L d-fructose+18.9 g/L d-glucose) as previously described (DIAMOND model (15)). After 8 weeks, the three groups of WD-fed mice were randomly selected for treatment with vehicle (WD group) or low (WD-50 group) or high dose (WD-100 group) of […]. The WD group was fed WD and drank sugar water. The WD-50 and WD-100 groups were fed WD and drank sugar water containing, respectively, 50 or 100 mg […] per kg body weight. The treatments were continued for another 8 weeks. Water bottles containing SW and […] or only SW were changed every other day. A fourth group of mice was fed a low-fat control diet (D12450B, Research Diets) and normal water for 16 weeks (CN group) (FIG. 9A). FIG. 9A presents the study design. Mice belonging to the same treatment group were housed together (5 mice/cage). Mice were maintained on 12:12-h light-dark cycles. All procedures were performed in accordance with Texas A&M University Health Sciences Center Institutional Animal Care and Use Committee guidelines under an approved animal use protocol (AUP #2017-0145). Targeted proteomics. A panel of 15 proteins having differential abundance in the untargeted proteomics data were selected for targeted measurements using product ion scans for representative peptides (Table 7). The relative abundance of a target protein was determined by quantifying the corresponding peptide peak's AUCs in MultiQuant and normalizing the value by the sample protein weight.

[2] = test system: inflammatory cytokines in liver tissue; test: Liver cytokine measurements (bead-based 13-cytokine panel) in WD mice; format: in vivo, mice (male B6 129SF1/J); settings: week 16
Text: Animal experiments. Male B6 129SF1/J mice at 6 weeks of age were obtained from Jackson Laboratories (Bar Harbor, ME). Mice were acclimatized to the animal facility for one week. At the start of the experiment, mice were randomly divided into four groups (n=10 for each group). Three of the four groups were fed ad libitum a Western diet (WD) with 40% Kcal from fat and containing 0.15% cholesterol (D12079B, Research Diets) and a sugar water (SW) solution (23.1 g/L d-fructose+18.9 g/L d-glucose) as previously described (DIAMOND model (15)). After 8 weeks, the three groups of WD-fed mice were randomly selected for treatment with vehicle (WD group) or low (WD-50 group) or high dose (WD-100 group) of […]. The WD group was fed WD and drank sugar water. The WD-50 and WD-100 groups were fed WD and drank sugar water containing, respectively, 50 or 100 mg […] per kg body weight. The treatments were continued for another 8 weeks. Water bottles containing SW and […] or only SW were changed every other day. […] The supernatant was transferred into a new tube and the total protein concentration was measured with the BCA protein assay (Thermo Fisher Scientific, Waltham, MA). A panel of 13 cytokines was quantified with a bead-based ELISA kit (BioLegend, San Diego, CA) following the manufacturer's protocol. […]

O=C([O-])Cc1c[nH]c2ccccc12.[Na+] [I3A, Indole-3-acetate sodium salt]
p-AMPK level (AMPK): upregulated p-AMPK to baseline levels
total AMPK level (AMPK): without altering total AMPK
decrease of Fasn in liver ([1]; I3A treated vs WD): 86%
abundance of antioxidant enzymes catalase (CatB) and glutathione peroxidase 1 (Gpx1) in liver ([1]; I3A treatment, WD-50 and WD-100): dose-dependent decrease
abundance of acetyl-CoA carboxylase-2 (Acab) in liver ([1]; WD-100 group vs WD): not significantly different
abundance of fatty acid synthase (Fasn) in liver ([1]; WD-100 group vs WD): decreased in the WD-100 group compared to the WD group
abundance of mitochondrial β-oxidation enzymes Acadl, Acadm, Acads and Hadh in liver ([1]; WD-100 group vs WD): significantly decreased in the WD-100 group compared to WD
abundance of peroxisomal β-oxidation enzymes Acox1, Acaala and Acaalb in liver ([1]; WD-100 group vs WD): A similar trend was observed
abundance of CD36 in liver ([1]; WD-100 group vs WD, sodium salt): did not affect CD36 abundance; also recorded: decreased, but not significantly
liver IL-10 ([2]; I3A treated vs WD): downregulated this cytokine
expression of pro-inflammatory cytokines in liver (panel, TNFα, IL-6, Mcp-1 etc.) ([2]; WD-50 and WD-100 vs WD, sodium salt): dose-dependently attenuated the production of type 1, 2 and 3 cytokines; also recorded: reduced the expression of these cytokines in a dose-dependent manner
